These results are taken from article PMC9194936, “Preclinical Activity and Pharmacokinetic/Pharmacodynamic Relationship for a Series of Novel Benzenesulfonamide Perforin Inhibitors” (ACS Pharmacology & Translational Science, 2022).

A value given as a limit tells only on which side of the number the result lay.

Series [1] concerns the target T1, perforin (Mus musculus, UniProt P10820).
T1 construct: endogenous in cells; host or cells: recipient cytotoxic lymphocytes (NK/CTL) of wild-type C57BL/6 mice, in vivo
T1 sequence (P10820 21-554): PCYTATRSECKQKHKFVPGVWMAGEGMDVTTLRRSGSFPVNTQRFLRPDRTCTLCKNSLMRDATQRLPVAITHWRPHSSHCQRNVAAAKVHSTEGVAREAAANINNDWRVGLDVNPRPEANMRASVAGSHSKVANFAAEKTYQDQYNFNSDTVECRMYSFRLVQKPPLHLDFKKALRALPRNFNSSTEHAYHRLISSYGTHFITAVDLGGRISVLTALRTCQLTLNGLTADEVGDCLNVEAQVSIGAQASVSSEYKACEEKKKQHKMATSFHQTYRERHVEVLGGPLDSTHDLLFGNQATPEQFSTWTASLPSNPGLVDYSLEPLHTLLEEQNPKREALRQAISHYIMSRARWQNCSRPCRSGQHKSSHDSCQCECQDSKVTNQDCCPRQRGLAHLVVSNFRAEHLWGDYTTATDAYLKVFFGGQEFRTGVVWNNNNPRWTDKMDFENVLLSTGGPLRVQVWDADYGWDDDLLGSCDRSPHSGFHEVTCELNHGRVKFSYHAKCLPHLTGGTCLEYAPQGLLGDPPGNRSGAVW
Briefly: PK/PD relationship (sigmoid Emax model, regression analysis). The note with it: in vivo mouse model. As to the method: The relationship between efficacy (% perforin inhibition in peripheral blood and spleen) and pharmacokinetics was determined for different pharmacokinetic properties (Figure 5A,B). […] Simply maintaining the concentrations above a minimal level without reaching very high levels was not sufficient for perforin inhibition, as exemplified by three doses at 80 mg/kg.
The normality of in vivo perforin inhibition data was checked by Shapiro–Wilk and D’Agostino–Pearson normality tests. Statistical tests were performed by one-way ANOVA with multiple comparisons made to the vehicle-treated group and corrected using Dunnett’s post-test analysis. A comparison of measured and simulated plasma concentrations was analyzed by linear regression. Efficacy data were correlated to pharmacokinetic data using a sigmoid Emax model and regression analysis. All statistical analyses were conducted using Prism v8 or 9.

Details of series [2]: method as in PMID 28582670; AUC: concentration or dose not given beside the values. The note with it: mouse plasma; cited from earlier work.
The nature of series [3]: Plasma protein binding by equilibrium dialysis. Format: in vitro ADME, mouse. As for the experimental part:
The plasma protein binding of the compounds was determined by equilibrium dialysis (12–14 kDa cutoff membrane). […] The dialysis unit was covered with an adhesive sealing film to prevent evaporation of the contents and placed in an incubator (Innova-42, New Brunswick Scientific) maintained at 37 °C with gentle mixing (80 rpm) for 6 h. Next, a 10 μL sample was aspirated from the plasma side and mixed with 90 μL of fresh PBS, whereas a 90 μL sample from the buffer side was removed and combined with 10 μL of drug-free plasma to ensure uniform matrix composition. Ice-cold acetonitrile (300 μL; Merck Millipore, Burlington, MA) containing internal standard (a BZS analogue of similar chemical structure) was added to each sample to precipitate protein and was vortexed for 2 min and centrifuged for 5 min at 13 000 rpm. The supernatant was diluted with 0.01% formic acid in ultrapure water (Milli-Q) (1:1) and quantitated by liquid chromatography–tandem mass spectrometry (LC-MS/MS). Each compound was tested in triplicate alongside control compounds known to have low (e.g., lidocaine) and high (e.g., amitriptyline) plasma protein binding. For media binding studies, the same assay was used, but RPMI with 0.1% BSA was used in place of CD1 mouse plasma.

Series [4] in a line: Splenocyte cellularity and tolerability in the bone marrow transfer assay. Type of series: in vivo. The conditions noted are these: all dose levels (100, 75 and 50% of MTD), qd x 4. As to the method: For the determination of splenic cell counts, mouse spleens were harvested and the cells dispersed in media by gentle teasing and then centrifuged at 500g. Cell pellets were resuspended in media and total spleen cell counts were performed manually using a standard hemocytometer and light microscopy. […] Peripheral blood cell counts and spleen white blood cell counts were determined on a Beckman Coulter Ac.T diff hematology analyzer.

A short description of series [5]: One-compartment pharmacokinetic model simulations. Details: species or system mouse. As for the experimental part: For determination of plasma concentrations of 1, C57BL/6 mice were treated with a single dose of 1 at four different dose levels (160, 120, 80, and 10 mg/kg) and blood samples were collected at multiple timepoints after dosing. Overall, the pharmacokinetics followed a dose-dependent relationship that was close to linear (Figure 3A). […] To confirm the accuracy of the simulations, C57BL/6 mice were treated intraperitoneally with 80, 120, or 160 mg/kg dose of 1 and the resulting plasma concentrations were evaluated at multiple time points within a 24 h period after one (0 h), two (0, 18 h) or three (0, 9 h, 18 h) doses.
Given the high concentrations required, there is potential for saturation of plasma protein binding to occur, where small dose increments could cause large increases in unbound concentrations.[35]
Test samples were diluted up to 100-fold in blank plasma as necessary and quantitated against a calibration curve of known analyte concentrations ranging from 3 nM to 30 μM in an appropriate matrix and quality controls at 0.03, 0.3, 3, and 30 μM. Pharmacokinetic parameters were evaluated using noncompartmental analysis and pharmacokinetic simulations using one-compartment analysis on Phoenix WinNonlin version 6.2 (Certara, Princeton, NJ). Multiple-dose simulations were generated from parameters derived from single-dose simulations.

The nature of series [6]: KHYG-1 viability (Trypan Blue exclusion). Type of series: cell-based. The conditions noted are these: human, KHYG-1 NK cells, at 20 μM. As to the method: The toxicity of perforin inhibitors toward KHYG-1 NK cells was determined as described previously.[14] KHYG-1 cells were preincubated with compounds in the same manner as the KHYG-1 cytotoxicity assay prior to the addition of RPMI with 0.1% BSA and incubation at 37 °C for 4 h. The cells were then washed and resuspended in complete medium and incubated for a further 24 h at 37 °C, after which cell viability was assessed by Trypan Blue (Thermo Fisher Scientific) exclusion.

For `CN1Cc2cc(-c3ccc(-c4cncc(NS(=O)(=O)c5ccccc5[N+](=O)[O-])c4)s3)ccc2C1=O` [Compound 1, N-{5-[5-(2-methyl-1-oxo-2,3-dihydro-1H-isoindol-5-yl)-2-thienyl]-3-pyridinyl}-2-nitrobenzenesulfonamide], the “total plasma concentration to be continuously maintained for optimal perforin inhibition” value in series [1] was greater than 900 µM. Also, in series [2], the AUC is 415 µM·h. Also, the Cmax in series [2] is 105000 nM. In addition, the fraction unbound at 6 h in series [3] (CD1, mouse, pH 7.4, without saturation of plasma protein binding (99.8% protein-bound), read-out: free fraction in plasma) is 0.002. Moreover, the total plasma concentration required for unbound IC90 at 6 h in series [3] (CD1, mouse, pooled mouse plasma, pH 7.4, at a free fraction of 0.002, read-out: total plasma concentrations required to achieve unbound plasma concentrations equivalent to the in vitro unbound IC90) is roughly 350 µM. Also, the fraction unbound at 6 h, 10 μM in series [3] (CD1, pH 7.4, mouse plasma, 10 μM, equilibrium dialysis) was 0.002; in series [3] (CD1, pooled mouse plasma, pH 7.4, concentration 10 μM, mouse plasma) it was 0.002. Also, the fraction unbound at 6 h, 100 μM in series [3] (CD1, pooled mouse plasma, pH 7.4, concentration 100 μM, mouse plasma) is 0.0006. In addition, the fraction unbound at 6 h, 500 μM in series [3] (CD1, pooled mouse plasma, pH 7.4, concentration 500 μM, mouse plasma) was 0.0019. The compound also showed a fraction unbound at 6 h, 1000 μM in series [3] (CD1, pooled mouse plasma, pH 7.4, concentration 1000 μM, mouse plasma) of 0.0038. Further, the “increase in free drug concentrations” value in series [3] (between 500 and 1000 μM) stood at 4 fold. The unbound concentration in series [3] (concentration 10 μM, mouse plasma) is 20 nM; in series [3] (concentration 100 μM, mouse plasma), 60 nM; in series [3] (concentration 500 μM, mouse plasma), 950 nM; in series [3] (concentration 1000 μM, mouse plasma) it was 3800 nM. Besides, in series [4], the “reductions in splenocyte number” value was “only minor reductions”. The tolerability result in series [4] is reported as “well tolerated”. For the same compound, the “duration that plasma concentration achieved 350 μM” value in series [5] (80 mg/kg three-dose schedule) is reported as 14.9 h; in series [5] (two doses of 120 mg/kg) it was 12.0 h; in series [5] (two doses of 160 mg/kg), 13.4 h.

`O=C1NCc2ccc(-c3ccc(-c4cncc(NS(=O)(=O)c5ccc(F)cc5F)c4)s3)cc21` [Compound 7, 2,4-difluoro-N-{5-[5-(3-oxo-2,3-dihydro-1H-isoindol-5-yl)-2-thienyl]-3-pyridinyl}benzenesulfonamide] yielded a viability at 24 h, 20 µM in series [6] of 96 ± 6%.

For orientation: AUC means the area under the concentration-time curve, a measure of exposure. By Cmax is commonly meant the peak of the concentration-time curve. As usually defined, the viability is the share of living cells, or the viability signal relative to a control.
